From PubChem BioAssay (NCI)
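Dose response: 5 concentrations. Exposure: 48 h. Format: 96-well plates. Endpoint: linear interpolation; highest concentration if not reached. GI50: concentration for 50% inhibition of growth. Definition used: TGI = concentration required for complete inhibition of growth.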

How the values were obtained:
Assay in all cases: NCI tumour cell line growth inhibition, 48 h; in the data active = GI50 below about 0.43 µM; inactive = the rest
[1] = system: OVCAR-5 ovarian
[2] = system: RPMI-8226 leukemia
[3] = system: 786-0 renal
[4] = system: HT29 colon
[5] = system: OVCAR-3 ovarian
[6] = system: LOX IMVI melanoma
[7] = system: SK-MEL-28 melanoma
[8] = system: HL-60(TB) leukemia
[9] = system: COLO 205 colon
[10] = system: XF 498 CNS
[11] = system: U251 CNS
[12] = system: SNB-75 CNS
[13] = system: HOP-62 NSCLC
[14] = system: HOP-18 NSCLC
[15] = system: NCI-H522 lung
[16] = system: K-562 leukemia
[17] = system: SN12C renal
[18] = system: DMS 114 small cell lung
[19] = system: DLD-1 colon
[20] = system: SNB-78 CNS
[21] = system: RXF 393 renal
[22] = system: M19-MEL melanoma
[23] = system: KM20L2 colon
[24] = system: A498 renal
[25] = system: MALME-3M melanoma
[26] = system: SW-620 colon
[27] = system: HCC-2998 colon
[28] = system: NCI-H460 lung
[29] = system: UO-31 renal
[30] = system: UACC-257 melanoma
[31] = system: A549 NSCLC
[32] = system: SR leukemia
[33] = system: NCI-H23 lung
[34] = system: KM12 colon
[35] = system: TK-10 renal
[36] = system: OVCAR-8 ovarian
[37] = system: SF-295 CNS
[38] = system: NCI-H226 lung
[39] = system: EKVX NSCLC
[40] = system: SF-268 CNS
[41] = system: IGROV1 ovarian
[42] = system: LXFL 529 NSCLC
[43] = system: HCT-15 colon
[44] = system: HOP-92 NSCLC
[45] = system: MOLT-4 leukemia
[46] = system: ACHN renal
[47] = system: SF-539 CNS
[48] = system: OVCAR-4 ovarian
[49] = system: SNB-19 CNS
[50] = system: SK-MEL-2 melanoma
[51] = system: HCT-116 colon
[52] = system: CAKI-1 renal
[53] = system: M14 melanoma
[54] = system: SK-OV-3 ovarian
[55] = system: DMS 273 small cell lung
[56] = system: CCRF-CEM leukemia
[57] = system: UACC-62 melanoma
[58] = system: SK-MEL-5 melanoma
[59] = system: P388 leukemia
[60] = system: MCF7 breast
[61] = system: SN12K1 renal
[62] = system: P388/ADR leukemia
[63] = system: NCI/ADR-RES ovarian
[64] = system: RXF-631 renal

CCOC(=O)C1SC(=Nc2cccc(Cl)c2C)N=C1C (stereo not drawn)
32.6 µM: TGI [4]
42.5 µM: TGI [5]
61.4 µM: TGI [12]
61.2 µM: TGI [32]
> 100 µM: TGI [7] | TGI [13] | TGI [18] | TGI [20] | TGI [21] | TGI [24] | TGI [28] | TGI [40] | TGI [41] | TGI [49]
73.3 µM: TGI [35]
89 µM: TGI [16]
57.5 µM: TGI [26]
40.1 µM: TGI [10]
> 10 µM: TGI [19] | TGI [27] | TGI [30] | TGI [33] | TGI [39] | TGI [42] | TGI [43]
38.3 µM: TGI [9]
35.6 µM: TGI [17]
60.4 µM: TGI [31]
77.7 µM: TGI [34]
32 µM: TGI [6]
46.8 µM: TGI [8]
84.4 µM: TGI [14]
78.9 µM: TGI [29]
30.3 µM: TGI [11]
42.4 µM: TGI [25]
41.9 µM: TGI [1]
37 µM: TGI [50]
35.2 µM: TGI [15]
31.3 µM: TGI [23]
69.9 µM: TGI [2]
72.6 µM: TGI [38]
78.8 µM: TGI [22] | TGI [45]
31.8 µM: TGI [3]
30.4 µM: TGI [44]
61.9 µM: TGI [36]
89.5 µM: TGI [48]
77.5 µM: TGI [46]
39.7 µM: TGI [37]
58.1 µM: TGI [51]
74 µM: TGI [47]

CC1=C(O)c2cn(C)cc2C(=O)C1=O
> 100 µM: TGI [1] | TGI [52] | TGI [2] | TGI [3] | TGI [4] | TGI [5] | TGI [6] | TGI [7] | TGI [8] | TGI [9] | TGI [10] | TGI [11] | TGI [12] | TGI [13] | TGI [14] | TGI [16] | TGI [17] | TGI [18] | TGI [19] | TGI [20] | TGI [53] | TGI [21] | TGI [22] | TGI [23] | TGI [24] | TGI [54] | TGI [25] | TGI [55] | TGI [26] | TGI [27] | TGI [28] | TGI [29] | TGI [30] | TGI [31] | TGI [32] | TGI [33] | TGI [34] | TGI [35] | TGI [36] | TGI [37] | TGI [38] | TGI [39] | TGI [40] | TGI [56] | TGI [41] | TGI [42] | TGI [43] | TGI [57] | TGI [44] | TGI [45] | TGI [46] | TGI [47] | TGI [48] | TGI [49] | TGI [50] | TGI [58] | TGI [51]

C=C(C)C(=O)O[C@H]1CC2=C[C@@H](C[C@@]3(C)O[C@@H]3[C@H]3OC(=O)C(=C)[C@@H]31)OC2=O
2.72 µM: TGI [43]
1.94 µM: TGI [26]
2.56 µM: TGI [40]
4.61 µM: TGI [51]
6.59 µM: TGI [33]
8.21 µM: TGI [47]
8.02 µM: TGI [17]
18.4 µM: TGI [12]
13.8 µM: TGI [29]
5.63 µM: TGI [30]
8.6 µM: TGI [34]
49.1 µM: TGI [49]
9.35 µM: TGI [18]
3.61 µM: TGI [7]
98.9 µM: TGI [13]
11.9 µM: TGI [37]
10.6 µM: TGI [28]
2.78 µM: TGI [44]
5.18 µM: TGI [63]
0.707 µM: TGI [36]
300 µM: TGI [20] | TGI [56]
27.1 µM: TGI [31]
inactive: GI50 [52] 2.63 µM | GI50 [2] 0.915 µM | GI50 [7] 1.24 µM | GI50 [14] 6.42 µM | GI50 [16] 1.21 µM | GI50 [20] 1.27 µM | GI50 [56] 1.18 µM | GI50 [43] 0.773 µM | GI50 [45] 0.789 µM | GI50 [51] 1.4 µM
12.1 µM: TGI [61]
10.5 µM: TGI [23]
14.6 µM: TGI [11]
4.82 µM: TGI [39]
7.61 µM: TGI [57]
12.2 µM: TGI [1]
9.46 µM: TGI [41]
30.7 µM: TGI [38]
9.06 µM: TGI [24]
5.62 µM: TGI [25]
12.8 µM: TGI [45]
6.52 µM: TGI [22]
active: GI50 [36] 0.406 µM | GI50 [40] 0.34 µM
1.16 µM: TGI [21]
6.25 µM: TGI [52]
8.22 µM: TGI [58]
34.9 µM: TGI [54]
9.82 µM: TGI [27]
47.6 µM: TGI [16]
10.9 µM: TGI [14]
26.3 µM: TGI [2]
11.1 µM: TGI [62]
1.71 µM: TGI [15]
8.81 µM: TGI [50]
1.29 µM: TGI [6]
8.09 µM: TGI [55]
3.3 µM: TGI [19]
6.48 µM: TGI [48]
5.93 µM: TGI [4]
3.4 µM: TGI [9]
3.74 µM: TGI [5]
5.42 µM: TGI [60]
15.6 µM: TGI [59]
1.12 µM: TGI [8]

CC(C)(C)OC(=O)N[C@H]1CC(O)c2ccccc2N(CC(=O)O)C1=O (stereo partly drawn)
> 100 µM: TGI [52] | TGI [3] | TGI [4] | TGI [5] | TGI [6] | TGI [7] | TGI [8] | TGI [9] | TGI [10] | TGI [12] | TGI [13] | TGI [14] | TGI [15] | TGI [17] | TGI [18] | TGI [19] | TGI [53] | TGI [21] | TGI [22] | TGI [23] | TGI [54] | TGI [25] | TGI [55] | TGI [26] | TGI [64] | TGI [27] | TGI [28] | TGI [29] | TGI [30] | TGI [31] | TGI [32] | TGI [33] | TGI [34] | TGI [35] | TGI [36] | TGI [37] | TGI [38] | TGI [39] | TGI [40] | TGI [56] | TGI [41] | TGI [42] | TGI [43] | TGI [57] | TGI [44] | TGI [45] | TGI [46] | TGI [47] | TGI [48] | TGI [49] | TGI [50] | TGI [58] | TGI [51]

COc1ccc(C(CCC(C)=O)C(=O)O)cc1OC (stereo not drawn)
> 100 µM: TGI [1] | TGI [52] | TGI [2] | TGI [3] | TGI [4] | TGI [5] | TGI [6] | TGI [7] | TGI [9] | TGI [10] | TGI [11] | TGI [12] | TGI [13] | TGI [14] | TGI [16] | TGI [17] | TGI [19] | TGI [20] | TGI [21] | TGI [22] | TGI [23] | TGI [24] | TGI [25] | TGI [55] | TGI [26] | TGI [28] | TGI [30] | TGI [31] | TGI [32] | TGI [33] | TGI [34] | TGI [35] | TGI [36] | TGI [37] | TGI [39] | TGI [40] | TGI [41] | TGI [43] | TGI [57] | TGI [44] | TGI [46] | TGI [47] | TGI [48] | TGI [49] | TGI [50] | TGI [58] | TGI [51]

CC(=O)Nc1ccccc1-c1nc2ccccc2nc1C
> 100 µM: TGI [1] | TGI [52] | TGI [2] | TGI [3] | TGI [4] | TGI [5] | TGI [6] | TGI [7] | TGI [8] | TGI [9] | TGI [11] | TGI [12] | TGI [13] | TGI [14] | TGI [15] | TGI [16] | TGI [17] | TGI [18] | TGI [19] | TGI [20] | TGI [53] | TGI [22] | TGI [23] | TGI [24] | TGI [54] | TGI [25] | TGI [26] | TGI [64] | TGI [28] | TGI [29] | TGI [30] | TGI [31] | TGI [32] | TGI [33] | TGI [34] | TGI [35] | TGI [36] | TGI [37] | TGI [38] | TGI [39] | TGI [40] | TGI [56] | TGI [41] | TGI [42] | TGI [43] | TGI [57] | TGI [44] | TGI [45] | TGI [46] | TGI [47] | TGI [48] | TGI [49] | TGI [50] | TGI [58] | TGI [51]

COC(=O)CCC(NC(=S)N/N=C/c1ccccn1)C(=O)OC (stereo not drawn)
> 100 µM: TGI [1] | TGI [2] | TGI [3] | TGI [4] | TGI [5] | TGI [6] | TGI [7] | TGI [8] | TGI [9] | TGI [10] | TGI [11] | TGI [12] | TGI [13] | TGI [14] | TGI [15] | TGI [16] | TGI [17] | TGI [18] | TGI [19] | TGI [20] | TGI [53] | TGI [21] | TGI [22] | TGI [23] | TGI [24] | TGI [54] | TGI [25] | TGI [26] | TGI [64] | TGI [27] | TGI [28] | TGI [29] | TGI [30] | TGI [31] | TGI [32] | TGI [33] | TGI [34] | TGI [35] | TGI [36] | TGI [37] | TGI [38] | TGI [39] | TGI [40] | TGI [56] | TGI [41] | TGI [42] | TGI [43] | TGI [57] | TGI [44] | TGI [45] | TGI [46] | TGI [47] | TGI [48] | TGI [49] | TGI [50] | TGI [58] | TGI [51]
